For orientation: IC50 means the concentration at which inhibition is half-maximal. Low readings indicate inhibition by little substance, high ones a need for much substance.

The structures appear in SMILES notation.

Experimental findings from patent publication US20090203692A1, “NOVEL CHEMICAL COMPOUNDS” (SMITHKLINE BEECHAM CORPORATION, priority 2005, published 2009) are described below.

The assay addresses T1, hYAK3 (Homo sapiens, UniProt O43781).
T1 construct: GST (N); His6 (C); made in house; host or cells: baculovirus expression system in Sf9 cells
T1 sequence (O43781 142-526): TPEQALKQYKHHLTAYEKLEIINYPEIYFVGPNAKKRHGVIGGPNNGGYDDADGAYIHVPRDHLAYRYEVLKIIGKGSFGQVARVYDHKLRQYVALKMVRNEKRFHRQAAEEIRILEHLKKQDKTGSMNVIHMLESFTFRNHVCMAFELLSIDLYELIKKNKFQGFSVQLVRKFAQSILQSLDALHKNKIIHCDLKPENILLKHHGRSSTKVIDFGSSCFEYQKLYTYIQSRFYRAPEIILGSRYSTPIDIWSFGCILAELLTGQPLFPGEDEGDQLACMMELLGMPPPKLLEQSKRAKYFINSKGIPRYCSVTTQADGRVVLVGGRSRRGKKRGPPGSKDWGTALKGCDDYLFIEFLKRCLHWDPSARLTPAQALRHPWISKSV
Description: YAK3 Scintillation Proximity Assay using Ser164 of myelin basic protein as the phosphoacceptor (kinase assay of purified hYAK3). It is filed as biochemical. The note with it: purified GST-hYak3-His6 4 nM; 1 μM ATP; 4 μM Ser164 peptide; 2 hours at room temperature; pIC50=-Log10(K). The procedure: Substrate phosphorylation assays were carried out as follows:
YAK3 Scintillation Proximity Assays Using Ser164 of Myelin Basic Protein as the Phosphoacceptor
The source of Ser164 substrate peptide The biotinylated Ser164, S164A peptide(LGGRDSRAGS*PMARRKK-ahx-Biotin-Amide), sequence derived from the C-terminus of bovine myelin basic protein (MBP) with […] substituted as Ala 162, was purchased from California Peptide Research Inc. (Napa, Calif.), and its purity was determined by HPLC. Phosphorylation occurs at position 164 (marked S* above). The calculated molecular mass of the peptide is 2166 dalton. Solid sample was dissolved at 10 mM in DMSO, aliquoted, and stored at −20 C until use. […]
Kinase assay of purified hYAK3: Assays were performed in 96 well (Costar, Catalog No. 3789) or 384 well plates (Costar, Catalog No. 3705). […] Compounds, titrated in DMSO, were evaluated at concentrations ranging from 50 μM to 0.2 nM. […]
The data for compound dose responses were plotted as % Inhibition, calculated with the data reduction formula 100*(1−[(U1−C2)/(C1−C2)]), versus concentration of compound, where U is the unknown value, C1 is the average control value obtained for DMSO, and C2 is the average control value obtained for 0.05M EDTA. […] The results for each compound were recorded as pIC50 calculated as follows: pIC50=−Log 10(K).
In general terms: In a scintillation proximity assay essentially only radioactivity close to the scintillant gives light.

In turn, `O=C1N=C(Nc2cccnc2Cl)S/C1=C\c1ccc2ncccc2c1` [Example 1, (5Z)-2-[(2-Chloro-3-pyridinyl)amino]-5-(6-quinolinylmethylidene)-1,3-thiazol-4(5H)-one] gave an IC50 of 1.58 nM.
